Test results taken from patent US20260262643A1, “HERBICIDAL BENZOXAZINES” (FMC CORPORATION, priority 2022, published 2026).

Columns and labels:
[1] = test system: wheat; experiment: Test C preemergence; format: in vivo, Triticum aestivum
How it was run: (§1)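 Test material, in non-phytotoxic solvent with surfactant, was sprayed on the soil directly after seeding (preemergence) or on young plants of 2–10 cm with one to two leaves (postemergence). Greenhouse, 10 days; 0–100 visual control scale.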

[2] = test system: kochia; experiment: Test C postemergence; format: in vivo, Bassia scoparia; details: 10 days, 0 to 100 scale (0 no effect, 100 complete control)
How it was run: as §1

[3] = test system: oat, wild; experiment: Test C postemergence; format: in vivo, Avena fatua; details: 10 days, 0 to 100 scale (0 no effect, 100 complete control)
How it was run: as §1

[4] = test system: galium; experiment: Test C postemergence; format: in vivo, Galium aparine; details: 10 days, 0 to 100 scale (0 no effect, 100 complete control)
How it was run: as §1

[5] = test system: soybean; experiment: Test C postemergence; format: in vivo, Glycine max; details: 10 days, 0 to 100 scale (0 no effect, 100 complete control)
How it was run: as §1

[6] = test system: barnyardgrass; experiment: Test C postemergence; format: in vivo, Echinochloa crusgalli; details: 10 days, 0 to 100 scale (0 no effect, 100 complete control)
How it was run: as §1

[7] = test system: wheat; experiment: Test C postemergence; format: in vivo, Triticum aestivum; details: 10 days, 0 to 100 scale (0 no effect, 100 complete control)
How it was run: as §1

[8] = test system: sedge, umbrella; experiment: Test D flooded paddy test; format: in vivo, Cyperus difformis; details: 250 g ai/ha, applied to paddy water, visual rating after 13 to 14 days, scale 0 to 100 (0 no effect, 100 complete control)
How it was run: (§2)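 Plants grown to the 2-leaf stage; pots flooded to 3 cm above soil at treatment and held at that depth throughout. Test compounds applied directly to the paddy water. After 13 to 14 days in a greenhouse, response was rated visually versus controls on a 0 (no effect) to 100 (complete control) scale.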

[9] = test system: pigweed, palmer; experiment: Test C postemergence; format: in vivo, Amaranthus palmeri; details: 10 days, 0 to 100 scale (0 no effect, 100 complete control)
How it was run: as §1

[10] = test system: corn; experiment: Test C postemergence; format: in vivo, Zea mays; details: 10 days, 0 to 100 scale (0 no effect, 100 complete control)
How it was run: as §1

[11] = test system: blackgrass; experiment: Test C postemergence; format: in vivo, Alopecurus myosuroides; details: 10 days, 0 to 100 scale (0 no effect, 100 complete control)
How it was run: as §1

[12] = test system: barnyardgrass; experiment: Test C preemergence; format: in vivo, Echinochloa crusgalli
How it was run: as §1

[13] = test system: ragweed; experiment: Test C postemergence; format: in vivo, Ambrosia artemisiifolia; details: 10 days, 0 to 100 scale (0 no effect, 100 complete control)
How it was run: as §1

[14] = test system: ragweed; experiment: Test C preemergence; format: in vivo, Ambrosia artemisiifolia
How it was run: as §1

[15] = test system: kochia; experiment: Test C preemergence; format: in vivo, Bassia scoparia
How it was run: as §1

[16] = test system: rice; experiment: Test D flooded paddy test; format: in vivo, Oryza sativa; details: 250 g ai/ha, applied to paddy water, visual rating after 13 to 14 days, scale 0 to 100 (0 no effect, 100 complete control)
How it was run: as §2

[17] = test system: barnyardgrass; experiment: Test D flooded paddy test; format: in vivo, Echinochloa crus-galli; details: 250 g ai/ha, applied to paddy water, visual rating after 13 to 14 days, scale 0 to 100 (0 no effect, 100 complete control)
How it was run: as §2

[18] = test system: blackgrass; experiment: Test C preemergence; format: in vivo, Alopecurus myosuroides
How it was run: as §1

[19] = test system: foxtail, giant; experiment: Test C preemergence; format: in vivo, Setaria faberi
How it was run: as §1

[20] = test system: ryegrass, Italian; experiment: Test C preemergence; format: in vivo, Lolium multiflorum
How it was run: as §1

[21] = test system: soybean; experiment: Test C preemergence; format: in vivo, Glycine max
How it was run: as §1

[22] = test system: horseweed; experiment: Test C postemergence; format: in vivo, Erigeron canadensis; details: 10 days, 0 to 100 scale (0 no effect, 100 complete control)
How it was run: as §1

[23] = test system: corn; experiment: Test C preemergence; format: in vivo, Zea mays
How it was run: as §1

[24] = test system: ducksalad; experiment: Test D flooded paddy test; format: in vivo, Heteranthera limosa; details: 250 g ai/ha, applied to paddy water, visual rating after 13 to 14 days, scale 0 to 100 (0 no effect, 100 complete control)
How it was run: as §2

[25] = test system: oat, wild; experiment: Test C preemergence; format: in vivo, Avena fatua
How it was run: as §1

[26] = test system: foxtail, giant; experiment: Test C postemergence; format: in vivo, Setaria faberi; details: 10 days, 0 to 100 scale (0 no effect, 100 complete control)
How it was run: as §1

[27] = test system: pigweed, palmer; experiment: Test C preemergence; format: in vivo, Amaranthus palmeri
How it was run: as §1

[28] = test system: ryegrass, Italian; experiment: Test C postemergence; format: in vivo, Lolium multiflorum; details: 10 days, 0 to 100 scale (0 no effect, 100 complete control)
How it was run: as §1

[29] = 500 g ai/ha, preemergence, 0 to 100 scale (0 no effect, 100 complete control)
[30] = Preemergence, 125 g ai/ha, 0 to 100 scale, 0 no effect, 100 complete control

Cc1ccc(-n2cncn2)cc1C(=O)N1CC(C(F)(F)F)Oc2c(Cl)cccc21 (stereo not shown) [Compound 346]
Wheat plant response rating [1, 29]: 80
Plant response rating, Wheat [1, 30]: 0
Plant response rating, Kochia ([2]; 500 g ai/ha, postemergence): 80
Plant response rating, Kochia ([2]; Postemergence, 125 g ai/ha): 70
Plant response rating, Oat, Wild ([3]; 500 g ai/ha, postemergence): 60
Plant response rating, Oat, Wild ([3]; Postemergence, 125 g ai/ha): 0
Plant response rating, Galium ([4]; 500 g ai/ha, postemergence): 100
Plant response rating, Galium ([4]; Postemergence, 125 g ai/ha): 100
Plant response rating, Soybean ([5]; 500 g ai/ha, postemergence): 100
Plant response rating, Soybean ([5]; Postemergence, 125 g ai/ha): 90
Plant response rating, Barnyardgrass ([6]; 500 g ai/ha, postemergence): 70
Plant response rating, Barnyardgrass ([6]; Postemergence, 125 g ai/ha): 40
Plant response rating, Wheat ([7]; 500 g ai/ha, postemergence): 70
Plant response rating, Wheat ([7]; Postemergence, 125 g ai/ha): 20
Plant response rating, Sedge, Umbrella (Flood) [8]: 85
Plant response rating, Pigweed, Palmer ([9]; 500 g ai/ha, postemergence): 70
Plant response rating, Pigweed, Palmer ([9]; Postemergence, 125 g ai/ha): 40
Plant response rating, Corn ([10]; 500 g ai/ha, postemergence): 90
Plant response rating, Corn ([10]; Postemergence, 125 g ai/ha): 10
Plant response rating, Blackgrass ([11]; 500 g ai/ha, postemergence): 90
Plant response rating, Blackgrass ([11]; Postemergence, 125 g ai/ha): 80
Barnyardgrass plant response rating [12, 29]: 100
Plant response rating, Barnyardgrass [12, 30]: 70
Plant response rating, Ragweed ([13]; 500 g ai/ha, postemergence): 40
Plant response rating, Ragweed ([13]; Postemergence, 125 g ai/ha): 30
Ragweed plant response rating [14, 29]: 10
Plant response rating, Ragweed [14, 30]: 0
Kochia plant response rating [15, 29]: 80
Plant response rating, Kochia [15, 30]: 10
Plant response rating, Rice (Flood) [16]: 0
Plant response rating, Barnyardgrass (Flood) [17]: 0
Blackgrass plant response rating [18, 29]: 90
Plant response rating, Blackgrass [18, 30]: 80
Foxtail, Giant plant response rating [19, 29]: 100
Plant response rating, Foxtail, Giant [19, 30]: 100
Ryegrass, Italian plant response rating [20, 29]: 90
Plant response rating, Ryegrass, Italian [20, 30]: 80
Soybean plant response rating [21, 29]: 100
Plant response rating, Soybean [21, 30]: 30
Plant response rating, Horseweed ([22]; 500 g ai/ha, postemergence): 0
Plant response rating, Horseweed ([22]; Postemergence, 125 g ai/ha): 0
Corn plant response rating [23, 29]: 90
Plant response rating, Corn [23, 30]: 0
Plant response rating, Ducksalad (Flood) [24]: 65
Oat, Wild plant response rating [25, 29]: 40
Plant response rating, Oat, Wild [25, 30]: 0
Plant response rating, Foxtail, Giant ([26]; 500 g ai/ha, postemergence): 90
Plant response rating, Foxtail, Giant ([26]; Postemergence, 125 g ai/ha): 90
Pigweed, Palmer plant response rating [27, 29]: 100
Plant response rating, Pigweed, Palmer [27, 30]: 100
Plant response rating, Ryegrass, Italian ([28]; 500 g ai/ha, postemergence): 80
Plant response rating, Ryegrass, Italian ([28]; Postemergence, 125 g ai/ha): 70
